Results on nine compounds are retold here after patent US20230159445A1, “STAT INHIBITORY COMPOUNDS AND COMPOSITIONS” (JANPIX LIMITED, priority 2020, published 2023).

The first assay concerns MV4-11 cells. Kind of assay: MV4-11 Cell Cytotoxicity Assay (CellTiter-Blue, 72 h). Particulars: Homo sapiens, MV4-11; MV-4-11 cells. It counts as cell-based, human. As for the experimental part: In some embodiments, the potency of the STAT5 inhibitors are evaluated by an in vitro assay such as MV4-11 Cell Cytotoxicity Assay. […] 10,000 cells were plated per well in 96-well flat-bottom sterile culture plates with low-evaporation lids. After 24 h, inhibitors and a vehicle control (0.5% DMSO) were added and the cells were incubated for 72 h at 37° C. in 5% CO2. Inhibitors were examined in triplicate at a maximal concentration of 50 μM, followed by 1:2 dilutions in subsequent wells (25, 12.5, 6.25, 3.125, 1.5625, 0.78125, 0.390625, 0.195313 and 0.097656 μM). After 72 h, the wells were treated with CellTiter-Blue® (20 μL/well), and the plates were incubated using standard cell culture conditions for 1 hour. Fluorescence was measured at 560/590 nm.
(In general: Resazurin is reduced to fluorescent resorufin, in cell work by metabolically active cells.)
The IC50 is the concentration needed to halve the response being measured. In the case of `CC(C)(C)c1cc(CN(C(=O)CN(Cc2cccnc2)S(=O)(=O)c2c(F)c(F)c(F)c(F)c2F)c2ccc(C(=O)O)c(O)c2)cc(C2CC2)c1` [Compound 1013, 4-(N-(3-(tert-butyl)-5-cyclopropylbenzyl)-2-(N-(pyridin-3-ylmethyl)-(2,3,4,5,6-pentafluoro-phenyl)sulfonamido)acetamido)-2-hydroxybenzoic acid], the IC50 lay in the range of 3.16 to 100 µM. The same measure, in the same setting: for `O=C(O)c1ccc(N(Cc2cccnn2)C(=O)CN(Cc2ccccc2C(F)(F)F)S(=O)(=O)c2c(F)c(F)c(F)c(F)c2F)c(OC2CC2)c1` [Compound 1138, 3-cyclopropoxy-4-(2-(N-(2-(trifluoromethyl)benzyl)-(2,3,4,5,6-pentafluoro-phenyl)sulfonamido)-N-(pyridazin-3-ylmethyl)acetamido) benzoic acid] the value was 3.16 to 100 µM; for `O=C(O)c1ccc(N(Cc2cc(O)cc(OCC3CC3)c2)C(=O)CN(Cc2ccc(Cl)cc2)S(=O)(=O)c2c(F)c(F)c(F)c(F)c2F)cc1O` [Compound 1020, 4-(2-(N-(4-chlorobenzyl)-(2,3,4,5,6-pentafluorophenyl)sulfon-amido)-N-(3-(cyclopropylmethoxy)-5-hydroxybenzyl)acetamido)-2-hydroxybenzoic acid], 3.16 to 100 µM.

Consider `CC(C)(C)c1cc(CN(C(=O)CN(Cc2ccccc2F)S(=O)(=O)c2c(F)c(F)c(F)c(F)c2F)c2ccc(C#N)c(F)c2)cc(C2CC2)c1` [Compound 1151, N-(3-(tert-butyl)-5-cyclopropylbenzyl)-N-(4-cyano-3-fluorophenyl)-2-(N-(2-fluorobenzyl)-(2,3,4,5,6-pentafluoro-phenyl)sulfonamido) acetamide], for which the IC50 is 3.16 to 100 µM.

As for `CN(C)c1cc(C(=O)O)c(F)cc1N(Cc1cc(C2CC2)cc(C(C)(C)C)c1)C(=O)CN(Cc1ccccc1C(F)(F)F)S(=O)(=O)c1c(F)c(F)c(F)c(F)c1F` [Compound 1113, 4-(N-(3-(tert-butyl)-5-cyclopropylbenzyl)-2-(N-(2-(trifluoromethyl)benzyl)-(2,3,4,5,6-pentafluoro-phenyl)sulfonamido)acetamido)-5-(dimethylamino)-2-fluorobenzoic acid], the IC50 was 0.316 to 1 µM. Still for that read-out and setting: for `CC(C)(C)c1cc(CN(C(=O)CN(Cc2ccccn2)S(=O)(=O)c2c(F)c(F)c(F)c(F)c2F)c2ccc(C(=O)O)c(O)c2)cc(C2CC2)c1` [Compound 1008, 4-(N-(3-(tert-butyl)-5-cyclopropylbenzyl)-2-(N-(pyridin-2-ylmethyl)-(2,3,4,5,6-pentafluorophenyl)sulfonamido)acetamido)-2-hydroxybenzoic acid] the value was 3.16 to 100 µM; for `CC(C)Cc1cc(CN(C(=O)CN(Cc2ccccc2F)S(=O)(=O)c2c(F)c(F)c(F)c(F)c2F)c2ccc(C(=O)O)c(O)c2)cc(C2CC2)c1` [Compound 1067, 4-(N-(3-cyclopropyl-5-isobutylbenzyl)-2-(N-(2-fluorobenzyl)-(2,3,4,5,6-pentafluoro-phenyl)sulfonamido)acetamido)-2-hydroxybenzoic acid], 3.16 to 100 µM.

The same assay, now with this note: Homo sapiens; MV4-11 cells, 72 h, CellTiter-Blue; read-out: IC50- MV-4-11.
`CC(C)(C)c1cc(CN(C(=O)CN(C23CC(C2)C3)S(=O)(=O)c2c(F)c(F)c(F)c(F)c2F)c2ccc(C(=O)O)c(O)c2)cc(C2CC2)c1` [Compound 2008, 4-(2-(N-(bicyclo[1.1.1]pentan-1-yl)-(2,3,4,5,6-pentafluorophenyl)sulfon-amido)-N-(3-(tert-butyl)-5-cyclopropylbenzyl)acetami-do)-2-hydroxybenzoic acid]: the half-inhibitory concentration (IC50) lay in the range of 3.16 to 100 µM. Take `O=C(O)c1ccc(N(Cc2cc(O)cc(O)c2)C(=O)CN(Cc2ccc(Cl)cc2)S(=O)(=O)c2c(F)c(F)c(F)c(F)c2F)cc1O` [Compound 2010, 4-(2-(N-(4-chlorobenzyl)-(2,3,4,5,6-pentafluorophenyl)sulfon-amido)-N-(3,5-dihydroxybenzyl)acetamido)-2-hydroxybenzoic acid]: the IC50 was 3.16 to 100 µM.
